Converted amounts (≈) assume the structure as drawn.
Columns and labels:
Assay type in all cases: functional
Cryptococcus neoformans = test: Antifungal activity against Cryptococcus neoformans ATCC 32264 by microbroth dilution method
[1] = test system: Trichophyton mentagrophytes; test: Antifungal activity against Trichophyton mentagrophytes ATCC 9972 by micro-broth dilution method
Aspergillus fumigatus = test: Antifungal activity against Aspergillus fumigatus ATCC 26934 by micro-broth dilution method
Trichophyton rubrum = test: Antifungal activity against Trichophyton rubrum C113 by microbroth dilution method
Nannizzia gypsea = test: Antifungal activity against Microsporum gypseum C115 by microbroth dilution method
Aspergillus flavus = test: Antifungal activity against Aspergillus flavus ATCC 9170 by micro-broth dilution method
Candida albicans = test: Antifungal activity against Candida albicans ATCC 10231 by micro-broth dilution method
Aspergillus niger = test: Antifungal activity against Aspergillus niger ATCC 9029 by micro-broth dilution method
Saccharomyces cerevisiae = test: Antifungal activity against Saccharomyces cerevisiae ATCC 9763 by microbroth dilution method
Candida tropicalis = test: Antifungal activity against Candida tropicalis C131 by micro-broth dilution method

Row | Structure (SMILES) | MIC (Cryptococcus neoformans) | MIC [1] | MIC (Aspergillus fumigatus) | MIC (Trichophyton rubrum) | MIC (Nannizzia gypsea) | MIC (Aspergillus flavus) | MIC (Candida albicans) | MIC (Aspergillus niger) | MIC (Saccharomyces cerevisiae) | MIC (Candida tropicalis)
1 | C=CCC(Nc1cc(C)cc(C)c1)c1ccncc1 (stereo not given) | > 250 µg/mL | 125 µg/mL (≈ 495 µM) | > 250 µg/mL | 250 µg/mL (≈ 991 µM) | 125 µg/mL (≈ 495 µM) | > 250 µg/mL | 250 µg/mL (≈ 991 µM) | > 250 µg/mL | 250 µg/mL (≈ 991 µM) | 250 µg/mL (≈ 991 µM)
2 | Cc1ccc(NCc2cccn2C)cc1 | > 250 µg/mL | > 250 µg/mL | > 250 µg/mL | > 250 µg/mL | > 250 µg/mL | > 250 µg/mL | > 250 µg/mL | > 250 µg/mL | > 250 µg/mL | > 250 µg/mL
3 | Cn1cccc1CNc1ccc(Cl)cc1 | 125 µg/mL (≈ 566 µM) | 250 µg/mL (≈ 1130 µM) | > 250 µg/mL | 250 µg/mL (≈ 1130 µM) | > 250 µg/mL | > 250 µg/mL | > 250 µg/mL | > 250 µg/mL | > 250 µg/mL | > 250 µg/mL
4 | C=CCC(Nc1ccc(Cl)cc1)c1ccoc1 (stereo not given) | 125 µg/mL (≈ 505 µM) | 62.5 µg/mL (≈ 252 µM) | > 250 µg/mL | 62.5 µg/mL (≈ 252 µM) | 62.5 µg/mL (≈ 252 µM) | > 250 µg/mL | > 250 µg/mL | > 250 µg/mL | > 250 µg/mL | > 250 µg/mL
5 | C=CCC(Nc1ccc(C)cc1)c1ccsc1 (stereo not given) | > 250 µg/mL | > 250 µg/mL | > 250 µg/mL | > 250 µg/mL | > 250 µg/mL | > 250 µg/mL | > 250 µg/mL | > 250 µg/mL | > 250 µg/mL | > 250 µg/mL
6 | C=CCC(Nc1ccc(Br)cc1)c1ccncc1 (stereo not given) | > 250 µg/mL | 31.2 µg/mL (≈ 103 µM) | > 250 µg/mL | 16 µg/mL (≈ 52.8 µM) | 16 µg/mL (≈ 52.8 µM) | > 250 µg/mL | > 250 µg/mL | > 250 µg/mL | > 250 µg/mL | > 250 µg/mL
7 | C=CCC(Nc1ccc(Cl)cc1)c1cccn1C (stereo not given) | > 250 µg/mL | 250 µg/mL (≈ 959 µM) | > 250 µg/mL | 250 µg/mL (≈ 959 µM) | > 250 µg/mL | > 250 µg/mL | > 250 µg/mL | > 250 µg/mL | > 250 µg/mL | > 250 µg/mL
8 | C=CCC(Nc1ccc(Cl)c(Cl)c1)c1ccco1 (stereo not given) | > 250 µg/mL | > 250 µg/mL | > 250 µg/mL | > 250 µg/mL | > 250 µg/mL | > 250 µg/mL | > 250 µg/mL | > 250 µg/mL | > 250 µg/mL | > 250 µg/mL
9 | Cc1ccc(NCc2ccncc2)cc1 | 50 µg/mL (≈ 252 µM) | 25 µg/mL (≈ 126 µM) | 100 µg/mL (≈ 504 µM) | 25 µg/mL (≈ 126 µM) | 50 µg/mL (≈ 252 µM) | 200 µg/mL (≈ 1010 µM) | 100 µg/mL (≈ 504 µM) | 100 µg/mL (≈ 504 µM) | 100 µg/mL (≈ 504 µM) | 50 µg/mL (≈ 252 µM)
10 | Cc1ccc(NCc2ccoc2)cc1 | 125 µg/mL (≈ 668 µM) | 250 µg/mL (≈ 1340 µM) | 250 µg/mL (≈ 1340 µM) | 250 µg/mL (≈ 1340 µM) | 125 µg/mL (≈ 668 µM) | 250 µg/mL (≈ 1340 µM) | 250 µg/mL (≈ 1340 µM) | 250 µg/mL (≈ 1340 µM) | 250 µg/mL (≈ 1340 µM) | 250 µg/mL (≈ 1340 µM)
11 | Cc1ccc(NCc2cccs2)cc1 | > 250 µg/mL | 50 µg/mL (≈ 246 µM) | > 250 µg/mL | 25 µg/mL (≈ 123 µM) | 12.5 µg/mL (≈ 61.5 µM) | > 250 µg/mL | > 250 µg/mL | > 250 µg/mL | > 250 µg/mL | > 250 µg/mL
12 | Cc1ccc(NC(C#N)c2ccsc2)cc1 (stereo not given) | 125 µg/mL (≈ 547 µM) | 125 µg/mL (≈ 547 µM) | > 250 µg/mL | 125 µg/mL (≈ 547 µM) | 250 µg/mL (≈ 1090 µM) | > 250 µg/mL | > 250 µg/mL | > 250 µg/mL | > 250 µg/mL | > 250 µg/mL
13 | Clc1ccc(NCc2ccsc2)cc1 | 62.5 µg/mL (≈ 279 µM) | 62.5 µg/mL (≈ 279 µM) | 125 µg/mL (≈ 559 µM) | 62.5 µg/mL (≈ 279 µM) | 62.5 µg/mL (≈ 279 µM) | 250 µg/mL (≈ 1120 µM) | 62.5 µg/mL (≈ 279 µM) | 250 µg/mL (≈ 1120 µM) | 250 µg/mL (≈ 1120 µM) | 62.5 µg/mL (≈ 279 µM)
14 | Clc1ccc(NCc2cccs2)cc1 | 62.5 µg/mL (≈ 279 µM) | 62.5 µg/mL (≈ 279 µM) | 125 µg/mL (≈ 559 µM) | 62.5 µg/mL (≈ 279 µM) | 62.5 µg/mL (≈ 279 µM) | 250 µg/mL (≈ 1120 µM) | 62.5 µg/mL (≈ 279 µM) | 250 µg/mL (≈ 1120 µM) | 250 µg/mL (≈ 1120 µM) | 62.5 µg/mL (≈ 279 µM)
15 | N#CC(Nc1ccccc1)c1ccco1 (stereo not given) | > 250 µg/mL | 250 µg/mL (≈ 1260 µM) | > 250 µg/mL | 250 µg/mL (≈ 1260 µM) | > 250 µg/mL | > 250 µg/mL | > 250 µg/mL | > 250 µg/mL | > 250 µg/mL | > 250 µg/mL
16 | c1ccc(NCc2ccsc2)cc1 | 250 µg/mL (≈ 1320 µM) | 125 µg/mL (≈ 660 µM) | 250 µg/mL (≈ 1320 µM) | 125 µg/mL (≈ 660 µM) | 250 µg/mL (≈ 1320 µM) | 250 µg/mL (≈ 1320 µM) | 250 µg/mL (≈ 1320 µM) | 250 µg/mL (≈ 1320 µM) | 250 µg/mL (≈ 1320 µM) | 250 µg/mL (≈ 1320 µM)
17 | COc1ccc(CNc2ccccc2)cc1 | > 250 µg/mL | 25 µg/mL (≈ 117 µM) | > 250 µg/mL | 25 µg/mL (≈ 117 µM) | 25 µg/mL (≈ 117 µM) | > 250 µg/mL | > 250 µg/mL | > 250 µg/mL | > 250 µg/mL | > 250 µg/mL
18 | CN(C)c1ccc(CNc2ccccc2)cc1 | > 250 µg/mL | > 250 µg/mL | 200 µg/mL (≈ 884 µM) | > 250 µg/mL | > 250 µg/mL | > 250 µg/mL | > 250 µg/mL | > 250 µg/mL | > 250 µg/mL | > 250 µg/mL
19 | Cc1ccc(NCc2ccco2)cc1 | 100 µg/mL (≈ 534 µM) | 50 µg/mL (≈ 267 µM) | 125 µg/mL (≈ 668 µM) | 25 µg/mL (≈ 134 µM) | 100 µg/mL (≈ 534 µM) | 250 µg/mL (≈ 1340 µM) | > 250 µg/mL | 250 µg/mL (≈ 1340 µM) | > 250 µg/mL | 250 µg/mL (≈ 1340 µM)
20 | Cc1cc(C)cc(NCc2ccncc2)c1 | 50 µg/mL (≈ 236 µM) | 25 µg/mL (≈ 118 µM) | 100 µg/mL (≈ 471 µM) | 25 µg/mL (≈ 118 µM) | 25 µg/mL (≈ 118 µM) | 200 µg/mL (≈ 942 µM) | 250 µg/mL (≈ 1180 µM) | 100 µg/mL (≈ 471 µM) | 250 µg/mL (≈ 1180 µM) | 250 µg/mL (≈ 1180 µM)
21 | c1ccc(NCc2cccnc2)cc1 | > 250 µg/mL | 125 µg/mL (≈ 678 µM) | 250 µg/mL (≈ 1360 µM) | 125 µg/mL (≈ 678 µM) | 125 µg/mL (≈ 678 µM) | 250 µg/mL (≈ 1360 µM) | 250 µg/mL (≈ 1360 µM) | 250 µg/mL (≈ 1360 µM) | > 250 µg/mL | 250 µg/mL (≈ 1360 µM)
22 | C=CCC(Nc1ccccc1)c1ccsc1 (stereo not given) | 250 µg/mL (≈ 1090 µM) | 250 µg/mL (≈ 1090 µM) | > 250 µg/mL | 250 µg/mL (≈ 1090 µM) | 125 µg/mL (≈ 545 µM) | > 250 µg/mL | > 250 µg/mL | > 250 µg/mL | > 250 µg/mL | > 250 µg/mL
23 | Fc1ccc(NCc2ccco2)cc1 | 100 µg/mL (≈ 523 µM) | 62.5 µg/mL (≈ 327 µM) | 100 µg/mL (≈ 523 µM) | 25 µg/mL (≈ 131 µM) | 100 µg/mL (≈ 523 µM) | > 250 µg/mL | 100 µg/mL (≈ 523 µM) | 250 µg/mL (≈ 1310 µM) | 125 µg/mL (≈ 654 µM) | 125 µg/mL (≈ 654 µM)

— ChEMBL document CHEMBL1143950, “Antifungal and cytotoxic activities of some N-substituted aniline derivatives bearing a hetaryl fragment” (Bioorg Med Chem, 2008)
